{"source": "patent US9914910B2", "about": "“Methods of preserving and protecting pancreatic beta cells and treating or preventing diabetes by inhibiting NOX-1” (Eastern Virginia Medical School, priority 2013, dated 2018)", "key": {"INS-1 cells [1]": {"system": "INS-1 cells", "assay": "Caspase-3 assay (pro-caspase-3 cleavage) after PIC", "assay_type": "cell-based, rat", "settings": "INS-1, PIC 4 hours, up to", "description": "A. Caspase-3 Assay: Pro-caspase-3 cleavage was measured using a caspase-3 Assay kit (BD Pharmigen, Franklin Lakes, N.J.) per the manufacturer's instructions; fluorescence being measured (SpectraMax, Molecular Devices, Sunnyvale, Calif.) at excitation 380 nm and emission 440 nm (INS-1) or 460 nm (βTC-3, mouse)."}, "INS-1 cells [2]": {"system": "INS-1 cells", "assay": "Apoptosis by YO-PRO-1 fluorescence microscopy after PIC", "assay_type": "cell-based, rat", "settings": "INS-1, PIC 24 hours, p<0.001", "description": "(§1) B. Fluorescence microscopy: Stimulated cells or islets were washed in cold PBS, and incubated for 30 mins at 40 C with cold PBS containing 1 μg/mL propidium iodide and 0.1 μM YO-PRO-1 (Life Technologies). For cell lines, five randomly fields per well were analyzed. For islets, all islets (>1000 um2 in size) were analyzed. Densitometric fluorescent value for YO-PRO-1 (green channel) was normalized to background and expressed proportional to cell occupied area (phase contrast). Images captured across three channels with Axiophot (Zeiss, Jena, Germany) with Axiovision (Zeiss) image analysis."}, "[3]": {"system": "primary human donor islets", "assay": "Apoptosis by YO-PRO-1 fluorescence microscopy after PIC", "assay_type": "cell-based", "settings": "10 μM ML171", "description": "(§2) Human donor islets were obtained from integrated islet distribution project (http://iidp.coh.org) and cultured in CMRL media (Mediatech, Manassas, Va.). Mouse islets were freshly isolated from 8-week old male C57BL/6J mice (Jackson Laboratory, Bar Harbor, Me.) by common bile duct cannulation and collagenase digestion. Islets were hand picked prior to use.\nas §1"}, "[4]": {"system": "NOX-1 gene expression in primary human donor islets", "assay": "PIC-induced NOX-1 gene expression (RT-PCR)", "assay_type": "cell-based", "settings": "1 μM ML171", "description": "(§3) Total RNA was isolated using the RNeasy Mini Kit (Qiagen, Valencia, Calif.) and cDNA prepared using MMLV reverse transcriptase (Life Technologies) and random hexamers (Life Technologies). Jump Start Taq polymerase (Life Technologies) was used in PCR reactions. […] RT-PCR reactions were performed in triplicate (CFX96 Bio-Rad, Hercules, Calif.). Taqman primers (Life Technologies) were also used. Data was normalized to the housekeeping gene GAPDH and analyzed using the 2-ΔΔCT method."}, "[5]": {"system": "NOX-1 protein in piglet islets", "assay": "PIC-induced NOX-1 protein in piglet islets", "assay_type": "cell-based", "settings": "1 μM, 18 hours", "description": "The methods disclosed herein may also be utilized in the preparation of viable xenotransplantable porcine islets and/or the treatment of a mammalian patient (including humans) suffering from diabetes involving the transplantation into the mammal of viable porcine islets capable of producing insulin within the host. Piglet islets are candidates for xenotransplantation of piglet islets with cytokines (PIC; TNF, IL-1, IFN) induced expression of NOX-1 protein. […] Islets were treated for 18 hours. Data supports feedforward regulation of NOX-1 expression and effective uncoupling of this pathway in piglet islets by inhibition of NOX-1 activity."}, "INS-1 cells [6]": {"system": "INS-1 cells", "assay": "Glucose-stimulated insulin secretion (GSIS) after PIC", "assay_type": "cell-based, rat", "settings": "INS-1, 1 mM vs 16 mM glucose, p<0.05", "description": "(§4) Treated islets or cells then were washed with PBS and placed in 1 mL serum-free Kreb-Ringer buffer (115 mM NaCl, 24 mM NaHCO3, 5 mM KCl, 1 mM MgCl2, and 25 mM HEPES) for 1 hour at 370 C. Low (1 mM) or high (16 mM) glucose was added for […] for 30 min. Insulin levels in media were measured by ELISA (Mercodia, Winston Salem, N.C.) as per the manufacturer's instructions.\nFIG. 4: Treatment of homogeneous rat beta cell line (INS-1) with pro-inflammatory cytokines (PIC) (TNFα, IL-1β, IFNγ) disrupts beta cell function measured by glucose-stimulated-insulin-secretion. Control (non cytokine-treated) cells respond to glucose elevation ([…]) by increasing insulin secretion. Insulin levels are plotted. In the presence of inflammatory cytokines (PIC) this response is lost and the dysfunctional cells ‘leak’ insulin. […] (*p<0.05, **p<0.01)."}, "primary mouse islets": {"system": "primary mouse islets", "assay": "Glucose-stimulated insulin secretion (GSIS) after PIC", "assay_type": "cell-based", "settings": "10 μM ML171, 1 mM vs 16 mM glucose", "description": "as §2, §4"}, "[7]": {"system": "MCP-1, IL-12p40, IL-12 p35, IFNγ gene expression in primary mouse islets", "assay": "Cytokine-induced target gene expression (real time PCR)", "assay_type": "cell-based", "settings": "NCTT-1 100 nM, ML171 1 μM", "description": "as §3\nData is quantitative real time PCR gene expression analysis from triplicate experiments performed in replicate. Fold induction in gene expression over control (non cytokine-treated) islets is graphed."}, "NOX-1": {"molecular_target": "T1, NOX-1 (Homo sapiens, UniProt Q9Y5S8)", "T1 sequence (Q9Y5S8 1-564)": "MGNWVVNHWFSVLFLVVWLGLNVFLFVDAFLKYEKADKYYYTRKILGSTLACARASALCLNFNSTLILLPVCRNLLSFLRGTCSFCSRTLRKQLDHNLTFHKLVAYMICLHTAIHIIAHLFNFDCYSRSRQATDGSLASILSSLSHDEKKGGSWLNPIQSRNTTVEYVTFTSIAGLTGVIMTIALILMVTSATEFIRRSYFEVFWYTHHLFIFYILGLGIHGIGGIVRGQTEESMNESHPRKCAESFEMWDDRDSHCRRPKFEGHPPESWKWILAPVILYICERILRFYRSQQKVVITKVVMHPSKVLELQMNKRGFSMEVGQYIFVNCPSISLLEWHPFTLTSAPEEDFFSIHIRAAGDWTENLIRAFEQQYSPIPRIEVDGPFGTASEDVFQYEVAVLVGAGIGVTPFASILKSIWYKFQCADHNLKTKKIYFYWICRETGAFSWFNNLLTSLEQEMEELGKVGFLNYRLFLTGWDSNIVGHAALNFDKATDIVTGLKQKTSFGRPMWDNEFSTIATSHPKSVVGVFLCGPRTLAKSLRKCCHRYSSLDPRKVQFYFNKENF", "T1 sequence (P13498 1-195 partner)": "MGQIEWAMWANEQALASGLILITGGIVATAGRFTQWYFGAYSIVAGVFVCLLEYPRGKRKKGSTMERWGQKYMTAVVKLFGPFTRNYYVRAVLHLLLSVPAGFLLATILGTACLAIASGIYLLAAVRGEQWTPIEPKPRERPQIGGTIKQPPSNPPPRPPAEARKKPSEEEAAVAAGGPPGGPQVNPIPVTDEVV", "settings": "cited from earlier work"}}}
{"smiles": "CC(=O)c1ccc2c(c1)Nc1ccccc1S2", "note": "[ML171, 2-acetylphenothiazine]", "values": [{"measurement": "block of PIC-induced activation of caspase-3", "setting": "INS-1 cells [1]", "value": "up to 100%±3.4%"}, {"measurement": "PIC-induced apoptosis (YO-PRO-1)", "setting": "INS-1 cells [2]", "value": "apoptosis was significantly decreased"}, {"measurement": "reduction of beta-cell apoptosis induced by PICs", "setting": "[3]", "value": "30%±3%"}, {"measurement": "inhibition of PIC-induced expression of NOX-1", "setting": "[4]", "value": 50, "unit": "%"}, {"measurement": "PIC-induced NOX-1 protein", "setting": "[5]", "value": "reduces PIC-induced NOX-1 protein"}, {"measurement": "glucose-stimulated insulin secretion with PIC", "setting": "INS-1 cells [6]", "value": "restoring the glucose-sensitive insulin response"}, {"measurement": "glucose stimulated insulin response with PIC", "setting": "primary mouse islets", "value": "partially restored"}, {"measurement": "induction of gene IFNγ by PIC", "setting": "[7]", "value": "attenuated"}, {"measurement": "induction of gene IL-12 p35 by PIC", "setting": "[7]", "value": "attenuated"}, {"measurement": "induction of gene IL-12p40 by PIC", "setting": "[7]", "value": "attenuated"}, {"measurement": "induction of gene MCP-1 by PIC", "setting": "[7]", "value": "attenuated"}, {"measurement": "inhibition of NOX-1 (in words)", "setting": "NOX-1", "value": "nanomolar inhibitor"}, {"measurement": "specificity for NOX-1 inhibition over NOX-2 inhibition and other NOX isoforms", "setting": "NOX-1", "value": "greater than 30 fold"}]}
